Laboratory results as given in paper PMC6268061, “Investigation of the Biological Properties of (Hetero)Aromatic Thiosemicarbazones” (Molecules, 2012).
≈ marks a conversion by molar mass, not a printed value. Read-outs that look alike come from different tables or passages of the source.

Key:
[1] = Lipophilicity determination using RP-HPLC (capacity factor, log k); assay type: physicochemical; details: C18, MeOH 55%/H2O 45%
Excerpt: Reversed phase high performance liquid chromatography (RP-HPLC) methods have become popular and are widely used for lipophilicity measurements. The general procedure is the measurement of the directly accessible retention time under isocratic conditions using varying amounts of methanol as an organic modifier in the mobile phase using RP columns and calculating the logarithm of the capacity factors (log k). Log k is the logarithm of the capacity factors in chromatographic approaches that is related to the partitioning of a compound between a mobile and a (pseudo-)stationary phase. Log k is used as the lipophilicity index converted to log P scale.
A Waters Alliance 2695 XE HPLC separation module and a Waters Photodiode Array Detector 2996 (Waters Corp., Milford, MA, USA) were used. A Symmetry® C18 5 μm, 4.6 × 250 mm, Part No. WAT054275 (Waters Corp.) chromatographic column was used. The HPLC separation process was monitored using Empower™ 2 Chromatography Data Software, Waters 2009 (Waters Corp.). A mixture of MeOH p.a. (55%) and H2O-HPLC-Mili-Q Grade (45%) was used as a mobile phase. The total flow of the column was 0.9 mL/min, injection volume 30 μL, column temperature 30 °C and sample temperature 10 °C. A detection wavelength of 210 nm was chosen. A KI methanolic solution was used for the determination of dead time (tD). Retention times (tR) were measured in minutes. The capacity factors k were calculated using the Empower™ 2 Chromatography Data Software according to the formula k = (tR − tD)/tD, where tR is the retention time of the solute, whereas tD denotes the dead time obtained using an unretained analyte. Log k, calculated from the capacity factor k, is used as the lipophilicity index converted to log P scale.

[2] = tested on: Trichophyton mentagrophytes 445; assay: In vitro antifungal susceptibility, broth microdilution; assay type: cell-based; details: read-out: MIC (IC50) TM
[3] = tested on: Candida albicans ATCC 44859; assay: as above; assay type: cell-based; details: read-out: MIC (IC80) CA
[4] = tested on: Aspergillus fumigatus 231; assay: as above; assay type: cell-based; details: read-out: MIC (IC50) AF
[5] = tested on: photosynthetic electron transport (PET) in spinach chloroplasts; assay: Inhibition of photosynthetic electron transport (PET) in spinach chloroplasts; assay type: biochemical, Spinacia oleracea L.; details: DCPIP photoreduction
Experimental: Chloroplasts were prepared from spinach (Spinacia oleracea L.) according to Masarovicova and Kralova. The inhibition of the photosynthetic electron transport (PET) in spinach chloroplasts was determined spectrophotometrically (Genesys 6, Thermo Fisher Scientific, Waltham, MA, USA) using an artificial electron acceptor 2,6-dichlorophenol-indophenol (DCIPP) according to Kralova et al. and the rate of photosynthetic electron transport was monitored as a photoreduction of DCPIP. The measurements were carried out in a phosphate buffer (0.02 mol/L, pH 7.2) containing sucrose (0.4 mol/L), MgCl2 (0.005 mol/L) and NaCl (0.015 mol/L). The chlorophyll content was 30 mg/L in these experiments and the samples were irradiated (~100 W/m^2 with 10 cm distance) with a halogen lamp (250 W) using a 4 cm water filter to prevent warming of the samples (suspension temperature 22 °C). The compounds studied were dissolved in DMSO due to their limited water solubility. […] The inhibitory efficiency of the compounds studied was expressed by IC50 values, i.e., by the molar concentration of the compounds that caused a 50% decrease in the oxygen evolution rate relative to the untreated control.

[6] = tested on: Candida glabrata 20/I; assay: In vitro antifungal susceptibility, broth microdilution; assay type: cell-based; details: Nakaseomyces glabratus, read-out: MIC (IC80) CG
[7] = tested on: HCT-116 human colon cancer cells (p53 wild type); set-up: method as in PMID 22858101; details: footnote 3: anticancer activity described elsewhere ref [34],[44]; cited from earlier work
[8] = tested on: Absidia corymbifera 272; assay: In vitro antifungal susceptibility, broth microdilution; assay type: cell-based; details: read-out: MIC (IC50) AC
[9] = tested on: Trichosporon beigelii 1188; assay: as above; assay type: cell-based; details: read-out: MIC (IC80) TB
Excerpt: The broth microdilution test was used for the assessment of the in vitro antifungal activity of the synthesized compounds against Candida albicans ATCC 44859 (CA), Candida tropicalis 156 (CT), Candida krusei ATCC 6258 (CK), Candida glabrata 20/I (CG), Trichosporon beigelii 1188 (TB), Aspergillus fumigatus 231 (AF), Absidia corymbifera 272 (AC), and Trichophyton mentagrophytes 445 (TM). Fluconazole (FLU) was used as the standard since it is a clinically used antimycotic drug. The procedure was performed using a twofold dilution of the compounds in RPMI 1640 (Sevapharma a.s., Prague, Czech Republic) buffered to pH 7.0 with […] of 3-morpholino-propane-1-sulfonic acid (MOPS, Sigma, Prague, Czech Republic). The final concentrations of the compounds ranged from 500 to 0.975 μmol/L. Drug-free controls were included. The determination of minimum inhibitory concentration (MIC) was performed according to the Clinical and Laboratory Standards Institute (CLSI, formerly NCCLS) reference protocol M27-A2 for yeasts (IC80 value) and M38-A for moulds (IC50 value). IC80 and IC50 were defined as an 80% resp. 50% or greater reduction in growth in comparison with the control. The values of MICs were determined after 24 and 48 h of static incubation at 35 °C. The final MICs for T. mentagrophytes, were determined after 72 and 120 h of incubation.

[10] = tested on: Candida krusei ATCC 6258; assay: as above; assay type: cell-based; details: Pichia kudriavzevii, read-out: MIC (IC80) CK
[11] = tested on: Candida tropicalis 156; assay: as above; assay type: cell-based; details: read-out: MIC (IC80) CT
[12] = Trichophyton mentagrophytes, 445, 72 h and 120 h, only one value presented (inactive)
[13] = ATCC44859, 24 h and 48 h, only one value presented (inactive)
[14] = Aspergillus fumigatus, 231, 24 h and 48 h, only one value presented (inactive)
[15] = 24 h and 48 h, only one value presented (inactive)
[16] = Lichtheimia corymbifera, 272, 24 h and 48 h, only one value presented (inactive)
[17] = Trichosporon beigelii, 1188, 24 h and 48 h, only one value presented (inactive)
[18] = ATCC6258, 24 h and 48 h, only one value presented (inactive)
[19] = Candida tropicalis, 156, 24 h and 48 h, only one value presented (inactive)
[20] = Trichophyton mentagrophytes, 445, 72 h
[21] = Trichophyton mentagrophytes, 445, 120 h
[22] = Aspergillus fumigatus, 231, 24 h
[23] = Aspergillus fumigatus, 231, 48 h
[24] = Lichtheimia corymbifera, 272, 24 h
[25] = Lichtheimia corymbifera, 272, 48 h
[26] = Trichosporon beigelii, 1188, 24 h
[27] = Trichosporon beigelii, 1188, 48 h

Structure (SMILES)	log k [1]	IC50 [2, 12] [µM]	MIC [3, 13] [µM]	IC50 [7] [µM]	IC50 [2, 20] [µM]	IC50 [2, 21] [µM]	MIC ([3]; ATCC44859, 24 h) [µM]	MIC ([3]; ATCC44859, 48 h) [µM]	IC50 [4, 22] [µM]	IC50 [4, 23] [µM]	MIC ([6]; 24 h) [µM]	MIC ([6]; 48 h) [µM]	IC50 [8, 24] [µM]	IC50 [8, 25] [µM]	MIC [9, 26] [µM]	MIC [9, 27] [µM]	MIC ([10]; ATCC6258, 24 h) [µM]	MIC ([10]; ATCC6258, 48 h) [µM]	MIC ([11]; Candida tropicalis, 156, 24 h) [µM]	MIC ([11]; Candida tropicalis, 156, 48 h) [µM]	other results
CNC(=S)NN=Cc1ccc2cccc(O)c2n1 [Compound 4e]	0.6236	> 125	> 125	1.71 ± 0.34																	IC50 [4, 14]: > 125 µM; IC50 [5]: 302 µM; MIC [6, 15]: > 125 µM; IC50 [8, 16]: > 125 µM; MIC [9, 17]: > 125 µM; MIC [10, 18]: > 125 µM; MIC [11, 19]: > 125 µM
CN(C)C(=S)NN/C=C/c1ccc2ccccc2n1 [Compound 4b, (E)-2-(Quinolin-2-ylvinyl)-N,N-dimethylhydrazinecarbothioamide]	0.6184			4.86 ± 1.48	3.9	3.9	1.95 (≈ 0.531 µg/mL)	1.95 (≈ 0.531 µg/mL)	3.9	3.9	1.95 (≈ 0.531 µg/mL)	1.95 (≈ 0.531 µg/mL)	3.9	3.9	1.95 (≈ 0.531 µg/mL)	1.95 (≈ 0.531 µg/mL)	3.9 (≈ 1.06 µg/mL)	3.9 (≈ 1.06 µg/mL)	1.95 (≈ 0.531 µg/mL)	7.81 (≈ 2.13 µg/mL)	IC50 [5]: 1370 µM
CCNC(=S)NN=Cc1c(O)ccc2cccnc12 [Compound 4k]	0.6539			> 25	62.5	62.5	> 500	> 500	> 500	> 500	62.5 (≈ 17.1 µg/mL)	500 (≈ 137 µg/mL)	> 500	> 500	> 500	> 500	> 500	> 500	> 500	> 500	
NC(=S)N/N=C/c1cccc(Cl)c1Cl [Compound 3a, (E)-2-(2,3-Dichlorobenzylidene)hydrazinecarbothioamide]	0.6892	> 125	> 125	41.5 ± 1.7																	IC50 [4, 14]: > 125 µM; MIC [6, 15]: > 125 µM; IC50 [8, 16]: > 125 µM; MIC [9, 17]: > 125 µM; MIC [10, 18]: > 125 µM; MIC [11, 19]: > 125 µM
CCNC(=S)N/N=C/c1cccc(Cl)c1Cl [Compound 3d, (E)-2-(2,3-Dichlorobenzylidene)-N-ethylhydrazinecarbothioamide]	0.7958	> 500	> 500	58.5 ± 0.2																	IC50 [4, 14]: > 500 µM; MIC [6, 15]: > 500 µM; IC50 [8, 16]: > 500 µM; MIC [9, 17]: > 500 µM; MIC [10, 18]: > 500 µM; MIC [11, 19]: > 500 µM
Oc1ccc2cccnc2c1C=NNC(=S)Nc1ccccc1 [Compound 4l]	0.6748			16.3 ± 1.69	15.6	15.6	31.2 (≈ 10.1 µg/mL)	62.5 (≈ 20.1 µg/mL)	125	125	15.6 (≈ 5.04 µg/mL)	31.2 (≈ 10.1 µg/mL)	15.6	62.5	15.6 (≈ 5.04 µg/mL)	125 (≈ 40.3 µg/mL)	31.2 (≈ 10.1 µg/mL)	125 (≈ 40.3 µg/mL)	125 (≈ 40.3 µg/mL)	125 (≈ 40.3 µg/mL)	
CN(C)C(=S)NN=Cc1c(O)ccc2cccnc12 [Compound 4j]	0.5831			20.8 ± 5.34	125	125	125 (≈ 34.3 µg/mL)	> 250	> 250	> 250	125 (≈ 34.3 µg/mL)	125 (≈ 34.3 µg/mL)	> 250	> 250	125 (≈ 34.3 µg/mL)	> 250	> 250	> 250	> 250	> 250	IC50 [5]: 520 µM
